Experimental findings from patent publication US11759462B2, “Spirocyclic compounds as tryptophan hydroxylase inhibitors” (priority 2013, dated 2023) are described below.

Test [1] has as its system jejunal mucosal 5-HT in mice (C57 BL6). Put plainly: Intestinal 5-HT depletion assay (Example B, single 150 mg/kg oral dose). Type of test: in vivo, mouse. The conditions noted are these: one day after oral administration of a single 150 mg/kg dose, P-value class (ANOVA). As for the experimental part:
The efficacy of the TPH1 inhibitors of the invention was assessed for the ability to decrease intestinal serotonin concentration in mice. Mice (C57 BL6) were administered a single 150 mg/kg dose of test article by oral gavage. Each animal was euthanized by exsanguination under isoflurane anesthesia. Jejunal intestinal mucosa was isolated and homogenized in 300 μL of a buffer containing 0.3M trichloroacetic acid, 0.1M sodium acetate, 10 mM EDTA, 20 mM sodium bisulfate and 50 mM ascorbic acid. Following centrifugation the 5-HT levels in the supernatants were measured by HPLC. The remaining mucosal pellet was solubilized overnight at 37° C. in a 0.1% sodium dodecyl sulfate buffer in 0.1N NaOH followed by determination of protein concentrations using a BCA protein assay (Pierce, Rockford, Ill. 5-HT levels were normalized to protein and data were expressed as mean percent reduction of mucosal 5-HT levels relative to vehicle control SEM (percent 5-HT reduction). All animal studies were carried out with protocols approved by the Institutional Animal Care and Use Committee.
P-values, indicating statistical significance of the data (ANOVA) are provided in the table: * refers to P<0.05, ** refers to P<0.01, *** refers to P<0.005, and refers to P<0.0005.

Test [2] deals with T1, Recombinant human TPH1 (MBP tagged) (Homo sapiens, UniProt P17752).
T1 construct: cloning full length human TPH1 cDNA in to a bacterial pMAL-c5E expression vector; made in house; host or cells: E. coli BL21 (DE3)
T1 sequence (P17752 1-444): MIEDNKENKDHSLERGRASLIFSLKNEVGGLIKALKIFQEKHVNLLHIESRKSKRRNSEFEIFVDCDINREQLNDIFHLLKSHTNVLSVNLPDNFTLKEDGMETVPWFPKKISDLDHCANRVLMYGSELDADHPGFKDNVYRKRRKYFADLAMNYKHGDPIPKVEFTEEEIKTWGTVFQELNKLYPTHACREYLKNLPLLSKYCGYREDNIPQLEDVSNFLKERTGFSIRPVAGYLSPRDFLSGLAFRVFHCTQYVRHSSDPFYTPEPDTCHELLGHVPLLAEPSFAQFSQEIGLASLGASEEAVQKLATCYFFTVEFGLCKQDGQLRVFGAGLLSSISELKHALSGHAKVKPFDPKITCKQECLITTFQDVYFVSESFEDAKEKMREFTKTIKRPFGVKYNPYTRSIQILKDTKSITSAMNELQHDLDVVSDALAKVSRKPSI
Briefly: TPH1 in vitro inhibition assay (kinetic fluorescence). The following applies: read-out: TPH1 Range (TPH1 inhibition IC50). Type of test: biochemical. In outline: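 Final mix: 15 nM MBP-TPH1, 30 μM Trp, 36 μM 6-methyltetrahydropterin, 25 μM ferrous ammonium sulfate, 50 mM MES pH 7.1, 1% DMSO, room temperature.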

Turning to `CCOC(=O)c1cccc(-c2ccc([C@@H](Oc3cc(N4CCC5(CC4)CN[C@H](C(=O)O)C5)nc(N)n3)C(F)(F)F)c(-n3ccc(C)n3)c2)c1` [Example 5], the “Efficacy (statistical significance of reduction of mucosal 5-HT concentrations relative to vehicle)” value in test [1] is “** (** refers to P<0.01)”.

For the molecule `Cc1ccn(-c2cc(C(F)(F)F)ccc2[C@@H](Oc2cc(N3CCC4(CC3)CN[C@H](C(=O)O)C4)nc(N)n2)C(F)(F)F)n1` [Example 10g, (S)-8-(2-amino-6-((R)-2,2,2-trifluoro-1-(2-(3-methyl-1H-pyrazol-1-yl)-4-(trifluoromethyl)phenyl)ethoxy)pyrimidin-4-yl)-2,8-diazaspiro[4.5]decane-3-carboxylic acid], the “Efficacy (statistical significance of reduction of mucosal 5-HT concentrations relative to vehicle)” value in test [1] was “** (** refers to P<0.01)”.

Regarding `Cc1ccc([C@@H](Oc2cc(N3CCC4(CC3)CN[C@H](C(=O)O)C4)nc(N)n2)C(F)(F)F)c(-n2ccc(C)n2)c1` [Example 10h, (S)-8-(2-amino-6-((R)-2,2,2-trifluoro-1-(4-methyl-2-(3-methyl-1H-pyrazol-1-yl)phenyl)ethoxy)pyrimidin-4-yl)-2,8-diazaspiro[4.5]decane-3-carboxylic acid], the “Efficacy (statistical significance of reduction of mucosal 5-HT concentrations relative to vehicle)” value in test [1] is listed as “*** (*** refers to P<0.005)”.

For the molecule `Cc1ccn(-c2cc(Cl)ccc2[C@@H](Oc2cc(N3CCC4(CC3)CN[C@H](C(=O)O)C4)nc(C)n2)C(F)(F)F)n1` [Example 28, (S)-8-(6-((R)-1-(4-chloro-2-(3-methyl-H-pyrazol-1-yl)phenyl)-2,2,2-trifluoroethoxy)-2-methylpyrimidin-4-yl)-2,8-diazaspiro[4.5]decane-3-carboxylic acid], the “Efficacy (statistical significance of reduction of mucosal 5-HT concentrations relative to vehicle)” value in test [1] was “* (* refers to P<0.05)”.

For the molecule `Cc1ccn(-c2cc(-c3cccnc3)ccc2[C@@H](Oc2cc(N3CCC4(CC3)CN[C@H](C(=O)O)C4)nc(C)n2)C(F)(F)F)n1` [Example 29z, (S)-8-(2-methyl-6-((R)-2,2,2-trifluoro-1-(2-(3-methyl-1H-pyrazol-1-yl)-4-(pyridin-3-yl)phenyl)ethoxy)pyrimidin-4-yl)-2,8-diazaspiro[4.5]decane-3-carboxylic acid], the “Efficacy (statistical significance of reduction of mucosal 5-HT concentrations relative to vehicle)” value in test [1] is given as “** (** refers to P<0.01)”.

In the case of `Cc1ccn(-c2cc(Cl)ccc2[C@@H](Oc2cc(N3CCC4(CC3)CNC(C(=O)O)C4)nc(NC3CCCCC3)n2)C(F)(F)F)n1` (stereo partly drawn) [Example 31, 8-(6-((R)-1-(4-chloro-2-(3-methyl-H-pyrazol-1-yl)phenyl)-2,2,2-trifluoroethoxy)-2-(cyclohexylamino)pyrimidin-4-yl)-2,8-diazaspiro[4.5]decane-3-carboxylic acid], in test [1], the “Efficacy (statistical significance of reduction of mucosal 5-HT concentrations relative to vehicle)” value is on record as “* (* refers to P<0.05)”.

On to `Nc1nc(O[C@H](c2ccc(Cl)cc2-c2ccccc2)C(F)(F)F)cc(N2CCC3(CC2)CN[C@H](C(=O)O)C3)n1` [Example 34r, (S)-8-(2-amino-6-((R)-1-(5-chloro-[1,1′-biphenyl]-2-yl)-2,2,2-trifluoroethoxy)pyrimidin-4-yl)-2,8-diazaspiro[4.5]decane-3-carboxylic acid], for which, in test [1], the “Efficacy (statistical significance of reduction of mucosal 5-HT concentrations relative to vehicle)” value is “*** (*** refers to P<0.005)”.

As a reminder, the IC50 is the concentration needed to halve the response being measured. For `CS(=O)(=O)c1cccc(-c2cc(Cl)ccc2COc2cc(N3CCC4(CC3)CN[C@H](C(=O)O)C4)nc(N)n2)c1` [Example 62, (S)-8-(2-amino-6-((5-chloro-3′-(methylsulfonyl)-[1,1′-biphenyl]-2-yl)methoxy)pyrimidin-4-yl)-2,8-diazaspiro[4.5]decane-3-carboxylic acid], the concentration for half-maximal inhibition (IC50) in test [2] lay in the range of 50 to 300 nM.

Consider `CCOC(=O)C1CC2(CCN(c3cc(O[C@H](c4ccc(Cl)cc4-n4ccc(C)n4)C(F)(F)F)nc(N)n3)CC2)CN1` (stereo partly drawn) [Example 63ay, ethyl 8-(2-amino-6-((R)-1-(4-chloro-2-(3-methyl-1H-pyrazol-1-yl)phenyl)-2,2,2-trifluoroethoxy)pyrimidin-4-yl)-2,8-diazaspiro[4.5]decane-3-carboxylate], for which the “Efficacy (statistical significance of reduction of mucosal 5-HT concentrations relative to vehicle)” value in test [1] was “*** (*** refers to P<0.005)”.

With `CCOC(=O)[C@@H]1CC2(CCN(c3cc(O[C@H](c4ccc(-c5cccc(OC)c5)cc4)C(F)(F)F)nc(N)n3)CC2)CN1` [Example 63ba, (S)-ethyl 8-(2-amino-6-((R)-2,2,2-trifluoro-1-(3′-methoxy-[1,1′-biphenyl]-4-yl)ethoxy)pyrimidin-4-yl)-2,8-diazaspiro[4.5]decane-3-carboxylate], the “Efficacy (statistical significance of reduction of mucosal 5-HT concentrations relative to vehicle)” value in test [1] was “*** (*** refers to P<0.005)”.

With `CCOC(=O)[C@@H]1CC2(CCN(c3cc(O[C@H](c4ccc(CC)cc4-n4ccc(C)n4)C(F)(F)F)nc(N)n3)CC2)CN1` [Example 63be, (S)-ethyl 8-(2-amino-6-((R)-1-(4-ethyl-2-(3-methyl-1H-pyrazol-1-yl)phenyl)-2,2,2-trifluoroethoxy)pyrimidin-4-yl)-2,8-diazaspiro[4.5]decane-3-carboxylate], the “Efficacy (statistical significance of reduction of mucosal 5-HT concentrations relative to vehicle)” value in test [1] is “*** (*** refers to P<0.005)”.

With `CCOC(=O)c1ccc(-n2ccc(C)n2)c([C@@H](Oc2cc(N3CCC4(CC3)CN[C@H](C(=O)OCC)C4)nc(N)n2)C(F)(F)F)c1` [Example 63bh, (S)-ethyl 8-(2-amino-6-((R)-1-(5-(ethoxycarbonyl)-2-(3-methyl-1H-pyrazol-1-yl)phenyl)-2,2,2-trifluoroethoxy)pyrimidin-4-yl)-2,8-diazaspiro[4.5]decane-3-carboxylate], in test [1], the “Efficacy (statistical significance of reduction of mucosal 5-HT concentrations relative to vehicle)” value is listed as “** (** refers to P<0.01)”.

As to `CCOC(=O)c1ccc([C@@H](Oc2cc(N3CCC4(CC3)CN[C@H](C(=O)OCC)C4)nc(N)n2)C(F)(F)F)c(-n2ccc(C)n2)c1` [Example 63bi, (S)-ethyl 8-(2-amino-6-((R)-1-(4-(ethoxycarbonyl)-2-(3-methyl-1H-pyrazol-1-yl)phenyl)-2,2,2-trifluoroethoxy)pyrimidin-4-yl)-2,8-diazaspiro[4.5]decane-3-carboxylate], the “Efficacy (statistical significance of reduction of mucosal 5-HT concentrations relative to vehicle)” value in test [1] is given as “** (** refers to P<0.01)”.

In the case of “(S)-8-(2-Amino-6-((4-(3-methyl-H-indazol-6-yl)phenoxy)methyl)pyrimidin-4-yl)-2,8-diazaspiro[4.5]decane-3-carboxylic acid [Example 61]”, the IC50 in test [2] is 50 to 300 nM.

Take “(S)-8-(2-amino-6-((R)-1-(3,4-dihydroquinazolin-6-yl)-2,2,2-trifluoroethoxy)pyrimidin-4-yl)-2,8-diazaspiro[4.5]decane-3-carboxylic acid [Example 57]”: in test [2], the IC50 was 50 to 300 nM.

As to “(S)-8-(2-amino-6-((R)-1-(4-bromo-2-(3-methyl-H-pyrazol-1-yl)phenyl)-2,2,2-trifluoroethoxy)pyrimidin-4-yl)-2,8-diazaspiro[4.5]decane-3-carboxylic acid [Example 10o]”, in test [2], the concentration for half-maximal inhibition (IC50) was below 50 nM.

As to “(S)-8-(2-amino-6-((R)-1-(5-chloro-3′-isopropyl-[1,1′- biphenyl]-2-yl)-2,2,2-trifluoroethoxy)pyrimidin-4- yl)-2,8-diazaspiro[4.5]decane-3-carboxylic acid [Example 34ce]”, the IC50 in test [2] was 50 to 300 nM.

For “(S)-8-(2-amino-6-((R)-2,2,2-trifluoro-1-(3-(3- methyl-1H-pyrazol-1-yl)-2′,3′,4′,5′-tetrahydro- [1,1′-biphenyl]-4-yl)ethoxy)pyrimidin-4-yl)- 2,8-diazaspiro[4.5]decane-3-carboxylic acid [Example 1v]”, the IC50 in test [2] was below 50 nM.

On to “(S)-8-(2-amino-6-((R)-2,2,2-trifluoro-1-(3′,4,5′- trifluoro-[1,1′-biphenyl]-4-yl)ethoxy)pyrimidin-4- yl)-2,8-diazaspiro[4.5]decane-3-carboxylic acid [Example 55co]”, for which the IC50 in test [2] was in the range of 50 to 300 nM.

Consider “(S)-8-(6-((R)-1-(4-(1H-indol-6-yl)-2-(3-methyl- 1H-pyrazol-1-yl)phenyl)-2,2,2-trifluoroethoxy)- 2-aminopyrimidin-4-yl)-2,8- diazaspiro[4.5]decane-3-carboxylic acid [Example 1aa]”, for which, in test [2], the IC50 is below 50 nM.
